Laboratory results published in US20130084379A1, “ACTIVE INGREDIENT DELIVERY SYSTEM” (FIRMENICH SA, priority 2010, published 2013).

Assay: Dissolution kinetics in a model beverage base (Distek 2100B USP 2 dissolution system, UV/VIS probe at 324 nm)
Format: physicochemical
Settings: 200 rpm, 20 ppm nominal
Description: The dissolution kinetics of the powder prepared in example 1 was compared to that of Compound 1 alone. Evaluation was performed under standard conditions using a Distek 2100B USP 2 dissolution system and a model beverage base.
The model beverage was prepared by stirring together 35 g sucrose, 1.5 g citric acid and 965.3 g deionised water until the sucrose was fully dissolved. Comparative sample 1 was prepared by adding 20 mg of Compound 1 (unencapsulated) to 1 litre of the beverage base to provide 20 ppm of compound 1. Sample 2 was prepared by adding 200 mg of the powder prepared in example 1 to 1 litre of the beverage to provide, once dissolved, a solution containing 20 ppm of compound 1. The samples were each stirred at 200 rpm and the concentration of compound 1 in solution was monitored as a function of time using a UV/VIS spectrometer probe (measuring absorbance at 324 nm). The results are given in the following table (where the values represent the amount (ppm) of Compound 1 in solution: […]

time at which 50% dissolution of Compound 1 was achieved: approximately 3600 seconds
Concentration in Solution (amount of Compound 1 in solution) (time 0 seconds): 0 ppm
Concentration in Solution (amount of Compound 1 in solution) (time 10 seconds): 0.1 ppm
Concentration in Solution (amount of Compound 1 in solution) (time 30 seconds): 0.2 ppm
Concentration in Solution (amount of Compound 1 in solution) (time 60 seconds): 0.3 ppm
Concentration in Solution (amount of Compound 1 in solution) (time 300 seconds): 0.6 ppm
Concentration in Solution (amount of Compound 1 in solution) (time 600 seconds): 1.4 ppm
Concentration in Solution (amount of Compound 1 in solution) (time 3600 seconds): 10.2 ppm
SMILES: CCCNC(=O)C(C)(C)COc1cccc2c1C(N)=NS(=O)(=O)N2 [Sample 1]
